Laboratory results taken from patent publication US11819497B2 (Azurity Pharmaceuticals, Inc., priority 2018, dated 2023).
Converted amounts (≈) assume the structure as drawn.

Assay: Solubility of nimodipine in various aqueous solvent systems
Assay type: physicochemical
Details: for solubility: aqueous solvent system (glycerin/ethanol/water/PEG400), aqueous with cosolvent or surfactant or cyclodextrin, thermodynamic from solid, Nimodipine solubility

## COCCOC(=O)C1=C(C)NC(C)=C(C(=O)OC(C)C)C1c1cccc([N+](=O)[O-])c1 (stereo not drawn) [Nimodipine]
Glycerin 0%, Ethanol 0%, Water 1%, PEG400 99%
  solubility: 43000 µg/mL (≈ 103 mM)
Glycerin 0%, Ethanol 0%, Water 5%, PEG400 95%
  solubility: 38000 µg/mL (≈ 90.8 mM)
Glycerin 0%, Ethanol 0%, Water 10%, PEG400 90%
  solubility: 26000 µg/mL (≈ 62.1 mM)
Glycerin 0%, Ethanol 0%, Water 15%, PEG400 85%
  solubility: 14000 µg/mL (≈ 33.5 mM)
Glycerin 0%, Ethanol 0%, Water 40%, PEG400 60%
  solubility: 1300 µg/mL (≈ 3.11 mM)
Glycerin 0%, Ethanol 0%, Water 50%, PEG400 50%
  solubility: 400 µg/mL (≈ 0.956 mM)
Glycerin 0%, Ethanol 1.0%, Water 10%, PEG400 89%
  solubility: 31000 µg/mL (≈ 74.1 mM)
Glycerin 0%, Ethanol 1.0%, Water 20%, PEG400 79%
  solubility: 18000 µg/mL (≈ 43 mM)
Glycerin 0%, Ethanol 5.0%, Water 10%, PEG400 85%
  solubility: 29000 µg/mL (≈ 69.3 mM)
Glycerin 0%, Ethanol 5.0%, Water 20%, PEG400 75%
  solubility: 14000 µg/mL (≈ 33.5 mM)
Glycerin 20%, Ethanol 0%, Water 20%, PEG400 60%
  solubility: 1500 µg/mL (≈ 3.58 mM)
Glycerin 30%, Ethanol 0%, Water 10%, PEG400 60%
  solubility: 1600 µg/mL (≈ 3.82 mM)
Glycerin 35%, Ethanol 0.4%, Water 1%, PEG400 63%
  solubility: 13400 µg/mL (≈ 32 mM)
Glycerin 35%, Ethanol 0.4%, Water 10%, PEG400 54%
  solubility: 5700 µg/mL (≈ 13.6 mM)
Glycerin 36%, Ethanol 0.4%, Water 20%, PEG400 43% (Table VI)
  solubility: 1500 µg/mL (≈ 3.58 mM)
Glycerin 36%, Ethanol 0.4%, Water 20%, PEG400 43% (Table VII)
  solubility: 1500 µg/mL (≈ 3.58 mM)
Glycerin 39%, Ethanol 0%, Water 1%, PEG400 60%
  solubility: 2100 µg/mL (≈ 5.02 mM)
Glycerin 46%, Ethanol 0.4%, Water 10%, PEG400 43%
  solubility: 1500 µg/mL (≈ 3.58 mM)
Glycerin 51%, Ethanol 0.4%, Water 5%, PEG400 43%
  solubility: 4300 µg/mL (≈ 10.3 mM)
Glycerin 55%, Ethanol 0.4%, Water 1%, PEG400 43%, room temperature
  solubility: 5200 µg/mL (≈ 12.4 mM)
water, polyethylene glycol, ethanol solvent system, higher amounts of ethanol (Example 2)
  Effect of higher amounts of ethanol on nimodipine solubility: reduced nimodipine solubility
